In patent US20230085307A1, “PYRIDAZINONE COMPOUND AND HERBICIDE” (NISSAN CHEMICAL CORPORATION, priority 2019, published 2023):

Assays:
late watergrass = assay: Test Example 2: herbicidal activity, application during weed generation under submerged conditions (Table 17, symbol A); format: in vivo, late watergrass (Echinochloa oryzicola); details: application during weed generation, submerged conditions
Procedure, shortened: (§1)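 Effect on each weed is rated three weeks post-treatment, using the same scoring criteria as the preceding test. Plants grow from mixed-sown seed in flooded alluvial soil (4 cm water) at 25° C. to 30° C., and are treated at one to two leaves with diluted emulsion dropped onto the water.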

Japanese bulrush = assay: Test Example 2: herbicidal activity, application during weed generation under submerged conditions (Table 17, symbol B); format: in vivo, Japanese bulrush (Schoenoplectus juncoides); details: application during weed generation, submerged conditions
Procedure, shortened: as §1

barnyard grass [1] = assay: Test Example 3: herbicidal effect by foliage application, Wagner pot (Table 18, symbol H); format: in vivo, barnyard grass (Echinochloa crus-galli)
Procedure, shortened: (§2)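 Plants were sown in alluvial soil held under 0.1–0.5 cm standing water and grown 14 days in a greenhouse at 25–30 °C. An emulsifiable formulation, water-diluted to the set dose, was then sprayed onto the foliage, and effects were scored three weeks later using previously defined criteria.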

rice flat sedge = assay: Test Example 3: herbicidal effect by foliage application, Wagner pot (Table 18, symbol E); format: in vivo, rice flat sedge (Cyperus iria)
Procedure, shortened: as §2

southern crabgrass [2] = assay: Test Example 4: herbicidal effect by soil treatment (Table 19, symbol F); format: in vivo, southern crabgrass (Digitaria ciliaris); details: for herbicidal effect rating, F: southern crabgrass: 320 g/ha
Procedure, shortened: (§3)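 Step 1: sow seeds in sterilized diluvial soil, cover ~1.5 cm. Step 2: spray diluted emulsion onto soil surface at predetermined rate. Step 3: greenhouse, 25–30° C, three weeks. Step 4: grade effect on each plant by earlier criteria.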

green foxtail = assay: Test Example 4: herbicidal effect by soil treatment (Table 19, symbol G); format: in vivo, green foxtail (Setaria viridis); details: for herbicidal effect rating, G: green foxtail: 320 g/ha
Procedure, shortened: as §3

barnyard grass [3] = assay: Test Example 4: herbicidal effect by soil treatment (Table 19, symbol H); format: in vivo, barnyard grass (Echinochloa crus-galli); details: for herbicidal effect rating, H: barnyard grass: 320 g/ha
Procedure, shortened: as §3

wild oat [4] = assay: Test Example 4: herbicidal effect by soil treatment (Table 19, symbol I); format: in vivo, wild oat (Avena fatua); details: for herbicidal effect rating, I: wild oat: 320 g/ha
Procedure, shortened: as §3

Italian ryegrass [5] = assay: Test Example 4: herbicidal effect by soil treatment (Table 19, symbol K); format: in vivo, Italian ryegrass (Lolium multiflorum); details: for herbicidal effect rating, K: Italian ryegrass: 320 g/ha
Procedure, shortened: as §3

velvetleaf = assay: Test Example 4: herbicidal effect by soil treatment (Table 19, symbol M); format: in vivo, velvetleaf (Abutilon theophrasti); details: for herbicidal effect rating, M: velvetleaf: 320 g/ha
Procedure, shortened: as §3

redroot pigweed [6] = assay: Test Example 4: herbicidal effect by soil treatment (Table 19, symbol N); format: in vivo, redroot pigweed (Amaranthus retroflexus); details: for herbicidal effect rating, N: redroot pigweed: 320 g/ha
Procedure, shortened: as §3

lambsquarters [7] = assay: Test Example 4: herbicidal effect by soil treatment (Table 19, symbol O); format: in vivo, lambsquarters (Chenopodium album); details: for herbicidal effect rating, O: lambsquarters: 320 g/ha
Procedure, shortened: as §3

chickweed = assay: Test Example 4: herbicidal effect by soil treatment (Table 19, symbol P); format: in vivo, common chickweed (Stellaria media); details: for herbicidal effect rating, P: chickweed: 320 g/ha
Procedure, shortened: as §3

southern crabgrass [8] = assay: Test Example 5: herbicidal effect by foliage application, plastic box (Table 20, symbol F); format: in vivo, southern crabgrass (Digitaria ciliaris); details: foliage application; for herbicidal effect on F: southern crabgrass: 320 g/ha, evaluated three weeks after application
Procedure, shortened: (§4)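 Foliar spray test: emulsion formulation diluted in water to a set application rate, sprayed onto 14-day-old plants raised in diluvial soil at 25° C to 30° C under glass. Both herbicidal effect and crop effect rated visually three weeks later.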

barnyard grass [9] = assay: Test Example 5: herbicidal effect by foliage application, plastic box (Table 20, symbol H); format: in vivo, barnyard grass (Echinochloa crus-galli); details: foliage application; for herbicidal effect on H: barnyard grass: 320 g/ha, evaluated three weeks after application
Procedure, shortened: as §4

wild oat [10] = assay: Test Example 5: herbicidal effect by foliage application, plastic box (Table 20, symbol I); format: in vivo, wild oat (Avena fatua); details: foliage application; for herbicidal effect on I: wild oat: 320 g/ha, evaluated three weeks after application
Procedure, shortened: as §4

blackgrass = assay: Test Example 5: herbicidal effect by foliage application, plastic box (Table 20, symbol J); format: in vivo, blackgrass (Alopecurus myosuroides); details: foliage application; for herbicidal effect on J: blackgrass: 320 g/ha, evaluated three weeks after application
Procedure, shortened: as §4

Italian ryegrass [11] = assay: Test Example 5: herbicidal effect by foliage application, plastic box (Table 20, symbol K); format: in vivo, Italian ryegrass (Lolium multiflorum); details: foliage application; for herbicidal effect on K: Italian ryegrass: 320 g/ha, evaluated three weeks after application
Procedure, shortened: as §4

windgrass = assay: Test Example 5: herbicidal effect by foliage application, plastic box (Table 20, symbol L); format: in vivo, windgrass (Apera spica-venti); details: foliage application; for herbicidal effect on L: windgrass: 320 g/ha, evaluated three weeks after application
Procedure, shortened: as §4

redroot pigweed [12] = assay: Test Example 5: herbicidal effect by foliage application, plastic box (Table 20, symbol N); format: in vivo, redroot pigweed (Amaranthus retroflexus); details: foliage application; for herbicidal effect on N: redroot pigweed: 320 g/ha, evaluated three weeks after application
Procedure, shortened: as §4

lambsquarters [13] = assay: Test Example 5: herbicidal effect by foliage application, plastic box (Table 20, symbol O); format: in vivo, lambsquarters (Chenopodium album); details: foliage application; for herbicidal effect on O: lambsquarters: 320 g/ha, evaluated three weeks after application
Procedure, shortened: as §4

persian speedwell = assay: Test Example 5: herbicidal effect by foliage application, plastic box (Table 20, symbol R); format: in vivo, Persian speedwell (Veronica persica); details: foliage application; for herbicidal effect on R: persian speedwell: 320 g/ha, evaluated three weeks after application
Procedure, shortened: as §4

[14] = AAH 368 g/ha, three weeks after application

Compound: COCCOc1ccc(-c2sc3ccccc3c2-c2c(O)c(C)nn(C)c2=O)cc1 [1-148]
- herbicidal effect rating, A: late watergrass (late watergrass; AAH 368 g/ha): 3 (Herbicidal rate of 40% or more and less than 70%)
- herbicidal effect rating, B: Japanese bulrush (Japanese bulrush; AAH 368 g/ha): 3 (Herbicidal rate of 40% or more and less than 70%)
- herbicidal effect on H (barnyard grass), rating 0-5 (barnyard grass [1]; 368 g/ha): 5 (Herbicidal rate of 90% or more (almost completely withered))
- herbicidal effect on E (rice flat sedge), rating 0-5 (rice flat sedge; 368 g/ha): 5 (Herbicidal rate of 90% or more (almost completely withered))
- F: southern crabgrass, herbicidal effect rating (southern crabgrass [2]; AAH 368 g/ha): 4 (Herbicidal rate of 70% or more and less than 90%)
- G: green foxtail, herbicidal effect rating (green foxtail; AAH 368 g/ha): 5 (Herbicidal rate of 90% or more (almost completely withered))
- H: barnyard grass, herbicidal effect rating (barnyard grass [3]; AAH 368 g/ha): 5 (Herbicidal rate of 90% or more (almost completely withered))
- I: wild oat, herbicidal effect rating (wild oat [4]; AAH 368 g/ha): 2 (Herbicidal rate of 20% or more and less than 40%)
- K: Italian ryegrass, herbicidal effect rating (Italian ryegrass [5]; AAH 368 g/ha): 5 (Herbicidal rate of 90% or more (almost completely withered))
- M: velvetleaf, herbicidal effect rating (velvetleaf; AAH 368 g/ha): 4 (Herbicidal rate of 70% or more and less than 90%)
- N: redroot pigweed, herbicidal effect rating (redroot pigweed [6]; AAH 368 g/ha): 5 (Herbicidal rate of 90% or more (almost completely withered))
- O: lambsquarters, herbicidal effect rating (lambsquarters [7]; AAH 368 g/ha): 5 (Herbicidal rate of 90% or more (almost completely withered))
- P: chickweed, herbicidal effect rating (chickweed; AAH 368 g/ha): 5 (Herbicidal rate of 90% or more (almost completely withered))
- F: southern crabgrass, herbicidal effect (southern crabgrass [8]; [14]): 5 (Herbicidal rate of 90% or more (almost completely withered))
- H: barnyard grass, herbicidal effect (barnyard grass [9]; [14]): 5 (Herbicidal rate of 90% or more (almost completely withered))
- I: wild oat, herbicidal effect (wild oat [10]; [14]): 4 (Herbicidal rate of 70% or more and less than 90%)
- J: blackgrass, herbicidal effect (blackgrass; [14]): 4 (Herbicidal rate of 70% or more and less than 90%)
- K: Italian ryegrass, herbicidal effect (Italian ryegrass [11]; [14]): 5 (Herbicidal rate of 90% or more (almost completely withered))
- L: windgrass, herbicidal effect (windgrass; [14]): 4 (Herbicidal rate of 70% or more and less than 90%)
- N: redroot pigweed, herbicidal effect (redroot pigweed [12]; [14]): 5 (Herbicidal rate of 90% or more (almost completely withered))
- O: lambsquarters, herbicidal effect (lambsquarters [13]; [14]): 5 (Herbicidal rate of 90% or more (almost completely withered))
- R: persian speedwell, herbicidal effect (persian speedwell; [14]): 5 (Herbicidal rate of 90% or more (almost completely withered))

Compound: Cc1nn(C)c(=O)c(-c2c(-c3ccc(OCC(F)(F)F)cc3)sc3ccc(F)cc23)c1O [2-049]
- herbicidal effect rating, A: late watergrass (late watergrass; AAH 320 g/ha): 0 (Herbicidal rate of 5% or less (almost no effect))
- herbicidal effect rating, B: Japanese bulrush (Japanese bulrush; AAH 320 g/ha): 2 (Herbicidal rate of 20% or more and less than 40%)
- herbicidal effect on H (barnyard grass), rating 0-5 (barnyard grass [1]; 320 g/ha): 5 (Herbicidal rate of 90% or more (almost completely withered))
- herbicidal effect on E (rice flat sedge), rating 0-5 (rice flat sedge; 320 g/ha): 5 (Herbicidal rate of 90% or more (almost completely withered))
- herbicidal effect rating, F: southern crabgrass (southern crabgrass [2]): 4 (Herbicidal rate of 70% or more and less than 90%)
- herbicidal effect rating, G: green foxtail (green foxtail): 5 (Herbicidal rate of 90% or more (almost completely withered))
- herbicidal effect rating, H: barnyard grass (barnyard grass [3]): 5 (Herbicidal rate of 90% or more (almost completely withered))
- herbicidal effect rating, I: wild oat (wild oat [4]): 0 (Herbicidal rate of 5% or less (almost no effect))
- herbicidal effect rating, K: Italian ryegrass (Italian ryegrass [5]): 4 (Herbicidal rate of 70% or more and less than 90%)
- herbicidal effect rating, M: velvetleaf (velvetleaf): 5 (Herbicidal rate of 90% or more (almost completely withered))
- herbicidal effect rating, N: redroot pigweed (redroot pigweed [6]): 5 (Herbicidal rate of 90% or more (almost completely withered))
- herbicidal effect rating, O: lambsquarters (lambsquarters [7]): 5 (Herbicidal rate of 90% or more (almost completely withered))
- herbicidal effect rating, P: chickweed (chickweed): 5 (Herbicidal rate of 90% or more (almost completely withered))
- herbicidal effect on F: southern crabgrass (southern crabgrass [8]): 5 (Herbicidal rate of 90% or more (almost completely withered))
- herbicidal effect on H: barnyard grass (barnyard grass [9]): 5 (Herbicidal rate of 90% or more (almost completely withered))
- herbicidal effect on I: wild oat (wild oat [10]): 5 (Herbicidal rate of 90% or more (almost completely withered))
- herbicidal effect on J: blackgrass (blackgrass): 5 (Herbicidal rate of 90% or more (almost completely withered))
- herbicidal effect on K: Italian ryegrass (Italian ryegrass [11]): 5 (Herbicidal rate of 90% or more (almost completely withered))
- herbicidal effect on L: windgrass (windgrass): 5 (Herbicidal rate of 90% or more (almost completely withered))
- herbicidal effect on N: redroot pigweed (redroot pigweed [12]): 5 (Herbicidal rate of 90% or more (almost completely withered))
- herbicidal effect on O: lambsquarters (lambsquarters [13]): 5 (Herbicidal rate of 90% or more (almost completely withered))
- herbicidal effect on R: persian speedwell (persian speedwell): 5 (Herbicidal rate of 90% or more (almost completely withered))

Compound: C=CCOc1ccc(-c2sc3ccc(F)cc3c2-c2c(O)c(C)nn(C)c2=O)cc1 [2-051]
- herbicidal effect rating, A: late watergrass (late watergrass; AAH 320 g/ha): 0 (Herbicidal rate of 5% or less (almost no effect))
- herbicidal effect rating, B: Japanese bulrush (Japanese bulrush; AAH 320 g/ha): 3 (Herbicidal rate of 40% or more and less than 70%)
- herbicidal effect on H (barnyard grass), rating 0-5 (barnyard grass [1]; 320 g/ha): 5 (Herbicidal rate of 90% or more (almost completely withered))
- herbicidal effect on E (rice flat sedge), rating 0-5 (rice flat sedge; 320 g/ha): 5 (Herbicidal rate of 90% or more (almost completely withered))
- herbicidal effect rating, F: southern crabgrass (southern crabgrass [2]): 5 (Herbicidal rate of 90% or more (almost completely withered))
- herbicidal effect rating, G: green foxtail (green foxtail): 5 (Herbicidal rate of 90% or more (almost completely withered))
- herbicidal effect rating, H: barnyard grass (barnyard grass [3]): 4 (Herbicidal rate of 70% or more and less than 90%)
- herbicidal effect rating, I: wild oat (wild oat [4]): 0 (Herbicidal rate of 5% or less (almost no effect))
- herbicidal effect rating, K: Italian ryegrass (Italian ryegrass [5]): 0 (Herbicidal rate of 5% or less (almost no effect))
- herbicidal effect rating, M: velvetleaf (velvetleaf): 3 (Herbicidal rate of 40% or more and less than 70%)
- herbicidal effect rating, N: redroot pigweed (redroot pigweed [6]): 5 (Herbicidal rate of 90% or more (almost completely withered))
- herbicidal effect rating, O: lambsquarters (lambsquarters [7]): 5 (Herbicidal rate of 90% or more (almost completely withered))
- herbicidal effect rating, P: chickweed (chickweed): 1 (Herbicidal rate of 5% or more and less than 20%)
- herbicidal effect on F: southern crabgrass (southern crabgrass [8]): 5 (Herbicidal rate of 90% or more (almost completely withered))
- herbicidal effect on H: barnyard grass (barnyard grass [9]): 5 (Herbicidal rate of 90% or more (almost completely withered))
- herbicidal effect on I: wild oat (wild oat [10]): 4 (Herbicidal rate of 70% or more and less than 90%)
- herbicidal effect on J: blackgrass (blackgrass): 5 (Herbicidal rate of 90% or more (almost completely withered))
- herbicidal effect on K: Italian ryegrass (Italian ryegrass [11]): 4 (Herbicidal rate of 70% or more and less than 90%)
- herbicidal effect on L: windgrass (windgrass): 5 (Herbicidal rate of 90% or more (almost completely withered))
- herbicidal effect on N: redroot pigweed (redroot pigweed [12]): 5 (Herbicidal rate of 90% or more (almost completely withered))
- herbicidal effect on O: lambsquarters (lambsquarters [13]): 5 (Herbicidal rate of 90% or more (almost completely withered))
- herbicidal effect on R: persian speedwell (persian speedwell): 5 (Herbicidal rate of 90% or more (almost completely withered))
